Literature values as cited in patent US12691066B2, “Dual-targeting biomimetic liposome with elemene (ELE) and cabazitaxel (CTX), and preparation method and use thereof” (HANGZHOU NORMAL UNIVERSITY, priority 2021, dated 2026).

- solubility in ethanol: soluble
- solubility in water: almost insoluble
SMILES: CO[C@H]1C(=O)[C@]2(C)[C@@H](OC)C[C@H]3OC[C@@]3(OC(C)=O)[C@H]2[C@H](OC(=O)c2ccccc2)[C@]2(O)C[C@H](OC(=O)[C@H](O)[C@@H](NC(=O)OC(C)(C)C)c3ccccc3)C(C)=C1C2(C)C [Cabazitaxel]
